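Tested at 5 concentrations; 48 h exposure; 96-well plates; endpoints linearly interpolated, else capped at highest concentration. Abbreviation: GI50, concentration required for 50% inhibition of growth. TGI denotes the concentration required for complete inhibition of growth.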
What was measured:
Test in all cases: inhibition of tumour cell growth, NCI panel, 48 h
HL-60(TB) leukemia = tested on: HL-60(TB) leukemia
KM12 colon = tested on: KM12 colon
LOX IMVI melanoma = tested on: LOX IMVI melanoma
SR leukemia = tested on: SR leukemia
TK-10 renal = tested on: TK-10 renal
DU-145 prostate = tested on: DU-145 prostate
HS 578T breast = tested on: HS 578T breast
UACC-257 melanoma = tested on: UACC-257 melanoma
MDA-MB-435 = tested on: MDA-MB-435
A498 renal = tested on: A498 renal
OVCAR-4 ovarian = tested on: OVCAR-4 ovarian
COLO 205 colon = tested on: COLO 205 colon
SN12C renal = tested on: SN12C renal
M14 melanoma = tested on: M14 melanoma
786-0 renal = tested on: 786-0 renal
SNB-75 CNS = tested on: SNB-75 CNS
IGROV1 ovarian = tested on: IGROV1 ovarian
UACC-62 melanoma = tested on: UACC-62 melanoma
ACHN renal = tested on: ACHN renal
SF-539 CNS = tested on: SF-539 CNS
HCT-15 colon = tested on: HCT-15 colon
HOP-62 NSCLC = tested on: HOP-62 NSCLC
MCF7 breast = tested on: MCF7 breast
CCRF-CEM leukemia = tested on: CCRF-CEM leukemia
EKVX NSCLC = tested on: EKVX NSCLC
RPMI-8226 leukemia = tested on: RPMI-8226 leukemia
NCI-H522 lung = tested on: NCI-H522 lung
NCI-H226 lung = tested on: NCI-H226 lung
SK-MEL-5 melanoma = tested on: SK-MEL-5 melanoma
SK-MEL-28 melanoma = tested on: SK-MEL-28 melanoma
K-562 leukemia = tested on: K-562 leukemia
SK-MEL-2 melanoma = tested on: SK-MEL-2 melanoma
HT29 colon = tested on: HT29 colon
MOLT-4 leukemia = tested on: MOLT-4 leukemia
SK-OV-3 ovarian = tested on: SK-OV-3 ovarian
CAKI-1 renal = tested on: CAKI-1 renal
A549 NSCLC = tested on: A549 NSCLC
T-47D breast = tested on: T-47D breast
NCI-H460 lung = tested on: NCI-H460 lung
SF-268 CNS = tested on: SF-268 CNS
MALME-3M melanoma = tested on: MALME-3M melanoma
NCI/ADR-RES ovarian = tested on: NCI/ADR-RES ovarian
OVCAR-8 ovarian = tested on: OVCAR-8 ovarian
U251 CNS = tested on: U251 CNS
NCI-H23 lung = tested on: NCI-H23 lung
SW-620 colon = tested on: SW-620 colon
HOP-92 NSCLC = tested on: HOP-92 NSCLC
PC-3 prostate = tested on: PC-3 prostate
UO-31 renal = tested on: UO-31 renal
MDA-MB-231 breast = tested on: MDA-MB-231 breast
SF-295 CNS = tested on: SF-295 CNS
OVCAR-5 ovarian = tested on: OVCAR-5 ovarian
HCT-116 colon = tested on: HCT-116 colon
HCC-2998 colon = tested on: HCC-2998 colon
OVCAR-3 ovarian = tested on: OVCAR-3 ovarian
SNB-19 CNS = tested on: SNB-19 CNS
RXF 393 renal = tested on: RXF 393 renal
BT-549 breast = tested on: BT-549 breast

What does the source list for `c1ccc(Oc2ccc(Nc3ncc(-c4ccccc4)o3)cc2)cc1`?
GI50 (HL-60(TB) leukemia): > 25 µM; TGI (HL-60(TB) leukemia): > 25 µM; GI50 (KM12 colon): > 25 µM; TGI (KM12 colon): > 25 µM; GI50 (LOX IMVI melanoma): > 25 µM; TGI (LOX IMVI melanoma): > 25 µM; GI50 (SR leukemia): > 25 µM; TGI (SR leukemia): > 25 µM; GI50 (TK-10 renal): > 25 µM; TGI (TK-10 renal): > 25 µM; GI50 (DU-145 prostate): > 25 µM; TGI (DU-145 prostate): > 25 µM; GI50 (HS 578T breast): > 25 µM; TGI (HS 578T breast): > 25 µM; GI50 (UACC-257 melanoma): > 25 µM; TGI (UACC-257 melanoma): > 25 µM; GI50 (MDA-MB-435): > 25 µM; TGI (MDA-MB-435): > 25 µM; GI50 (A498 renal): > 25 µM; TGI (A498 renal): > 25 µM; GI50 (OVCAR-4 ovarian): > 25 µM; TGI (OVCAR-4 ovarian): > 25 µM; GI50 (COLO 205 colon): > 25 µM; TGI (COLO 205 colon): > 25 µM; GI50 (SN12C renal): > 25 µM; TGI (SN12C renal): > 25 µM; GI50 (M14 melanoma): > 25 µM; TGI (M14 melanoma): > 25 µM; GI50 (786-0 renal): > 25 µM; TGI (786-0 renal): > 25 µM; GI50 (SNB-75 CNS): > 25 µM; TGI (SNB-75 CNS): > 25 µM; GI50 (IGROV1 ovarian): > 25 µM; TGI (IGROV1 ovarian): > 25 µM; GI50 (UACC-62 melanoma): > 25 µM; TGI (UACC-62 melanoma): > 25 µM; GI50 (ACHN renal): > 25 µM; TGI (ACHN renal): > 25 µM; GI50 (SF-539 CNS): > 25 µM; TGI (SF-539 CNS): > 25 µM; GI50 (HCT-15 colon): > 25 µM; TGI (HCT-15 colon): > 25 µM; GI50 (HOP-62 NSCLC): > 25 µM; TGI (HOP-62 NSCLC): > 25 µM; GI50 (MCF7 breast): > 25 µM; TGI (MCF7 breast): > 25 µM; GI50 (CCRF-CEM leukemia): > 25 µM; TGI (CCRF-CEM leukemia): > 25 µM; GI50 (EKVX NSCLC): > 25 µM; TGI (EKVX NSCLC): > 25 µM; GI50 (RPMI-8226 leukemia): > 25 µM; TGI (RPMI-8226 leukemia): > 25 µM; GI50 (NCI-H522 lung): > 25 µM; TGI (NCI-H522 lung): > 25 µM; GI50 (NCI-H226 lung): > 25 µM; TGI (NCI-H226 lung): > 25 µM; GI50 (SK-MEL-5 melanoma): > 25 µM; TGI (SK-MEL-5 melanoma): > 25 µM; GI50 (SK-MEL-28 melanoma): > 25 µM; TGI (SK-MEL-28 melanoma): > 25 µM; GI50 (K-562 leukemia): > 25 µM; TGI (K-562 leukemia): > 25 µM; GI50 (SK-MEL-2 melanoma): > 25 µM; TGI (SK-MEL-2 melanoma): > 25 µM; GI50 (HT29 colon): > 25 µM; TGI (HT29 colon): > 25 µM; GI50 (MOLT-4 leukemia): > 25 µM; TGI (MOLT-4 leukemia): > 25 µM; GI50 (SK-OV-3 ovarian): > 25 µM; TGI (SK-OV-3 ovarian): > 25 µM; GI50 (CAKI-1 renal): > 25 µM; TGI (CAKI-1 renal): > 25 µM; GI50 (A549 NSCLC): > 25 µM; TGI (A549 NSCLC): > 25 µM; GI50 (T-47D breast): > 25 µM; TGI (T-47D breast): > 25 µM; GI50 (NCI-H460 lung): > 25 µM; TGI (NCI-H460 lung): > 25 µM; GI50 (SF-268 CNS): > 25 µM; TGI (SF-268 CNS): > 25 µM; GI50 (MALME-3M melanoma): > 25 µM; TGI (MALME-3M melanoma): > 25 µM; GI50 (NCI/ADR-RES ovarian): > 25 µM; TGI (NCI/ADR-RES ovarian): > 25 µM; GI50 (OVCAR-8 ovarian): > 25 µM; TGI (OVCAR-8 ovarian): > 25 µM; GI50 (U251 CNS): > 25 µM; TGI (U251 CNS): > 25 µM; GI50 (NCI-H23 lung): > 25 µM; TGI (NCI-H23 lung): > 25 µM; GI50 (SW-620 colon): > 25 µM; TGI (SW-620 colon): > 25 µM; GI50 (HOP-92 NSCLC): 23.9 µM; TGI (HOP-92 NSCLC): > 25 µM; GI50 (PC-3 prostate): > 25 µM; TGI (PC-3 prostate): > 25 µM; GI50 (UO-31 renal): > 25 µM; TGI (UO-31 renal): > 25 µM; GI50 (MDA-MB-231 breast): > 25 µM; TGI (MDA-MB-231 breast): > 25 µM; GI50 (SF-295 CNS): > 25 µM; TGI (SF-295 CNS): > 25 µM; GI50 (OVCAR-5 ovarian): > 25 µM; TGI (OVCAR-5 ovarian): > 25 µM; GI50 (HCT-116 colon): > 25 µM; TGI (HCT-116 colon): > 25 µM; GI50 (HCC-2998 colon): > 25 µM; TGI (HCC-2998 colon): > 25 µM; GI50 (OVCAR-3 ovarian): > 25 µM; TGI (OVCAR-3 ovarian): > 25 µM; GI50 (SNB-19 CNS): > 25 µM; TGI (SNB-19 CNS): > 25 µM; GI50 (RXF 393 renal): > 25 µM; TGI (RXF 393 renal): > 25 µM; GI50 (BT-549 breast): > 25 µM; TGI (BT-549 breast): > 25 µM
